In US12492194B2, “HPK1 inhibitors” (Janssen Pharmaceutica NV, priority 2019, dated 2025):

Assays:
Hpk1 = Hpk1 (Homo sapiens, UniProt Q92918); assay: SLP76 phosphorylation assay (SLP76 pS376 in lysates of HEK293 cells engineered to express Hpk1 and SLP76); assay type: cell-based; conditions: HEK293 cells expressing Hpk1 and SLP76, 4 hours incubation; read-out: pSLP76 (HEK293) (pIC50) (converted)
Protocol: SLP76 Phosphorylation Assay
Hpk1 inhibition in cells was determined by detection of SLP76 phosphorylation at S376 in lysates from HEK293 cells engineered to express Hpk1 and SLP76. Serial dilutions of test compounds were prepared in cell culture medium and 20 μl was transferred into each well of a 96-well plate containing HEK293 cells in 180 μl of culture medium. After incubation for 4 hours at 37° C./5% CO2, the culture medium was removed, plates were put on ice and cells washed with cold Minimal Essential Medium before lysing in 90 μl of cold Mammalian Protein Extraction Reagent (Thermo Scientific, 78501) for 30 minutes on ice. The cell lysates were transferred to another 96-well plate, centrifuged 10 minutes at 3000 rcf (4° C.) and 30 μl transferred to a 96-well High-bind plate (MSD, L15XB-3). After coating overnight at 4° C., the cell lysate was removed, wells were washed with base buffer (TBS, 0.2% Tween-20), and blocking solution (base buffer containing 3% MSD blocker A) was added to each well for 1 hour at room temperature. The blocking solution was removed, the wells were washed with base buffer, and detection antibody (SLP76 pS376) was added in 25 μl base buffer containing 1% MSD blocker A to each well. After a 2 h incubation at room temperature, the detection antibody was removed, wells were washed four times with base buffer, 25 μl SULFO-TAG labeled goat anti-rabbit secondary antibody (MSD, R32AB-1) in base buffer containing 1% MSD blocker A was added to each well and left for 1 hour at room temperature. Wells were washed 4 times with base buffer, 150 μl Read Buffer T was added to each well, and the plates were read in a Mesoscale plate reader (MSD). IC50 values were determined by curve-fitting the electrochemiluminescent signals obtained from the lysates of HEK293 cells expressing Hpk1 and SLP76 treated with test compounds at various concentrations minus the signal obtained from HEK293 cells expressing SLP76 only.

full-length human Hpk1 = biological target: T1, full-length human Hpk1 (Homo sapiens, UniProt Q92918); assay: HPK1 kinase assay (ADP Glo Kinase Assay); assay type: biochemical; conditions: full-length human GST-Hpk1, ADP Glo, 75 μM ATP; read-out: Hpk1 biochemical (pIC50) (converted)
T1 construct: A recombinant fusion protein consisting of full-length human Hpk1; GST (N)
T1 sequence (Q92918 whole entry, the tested form may be a part): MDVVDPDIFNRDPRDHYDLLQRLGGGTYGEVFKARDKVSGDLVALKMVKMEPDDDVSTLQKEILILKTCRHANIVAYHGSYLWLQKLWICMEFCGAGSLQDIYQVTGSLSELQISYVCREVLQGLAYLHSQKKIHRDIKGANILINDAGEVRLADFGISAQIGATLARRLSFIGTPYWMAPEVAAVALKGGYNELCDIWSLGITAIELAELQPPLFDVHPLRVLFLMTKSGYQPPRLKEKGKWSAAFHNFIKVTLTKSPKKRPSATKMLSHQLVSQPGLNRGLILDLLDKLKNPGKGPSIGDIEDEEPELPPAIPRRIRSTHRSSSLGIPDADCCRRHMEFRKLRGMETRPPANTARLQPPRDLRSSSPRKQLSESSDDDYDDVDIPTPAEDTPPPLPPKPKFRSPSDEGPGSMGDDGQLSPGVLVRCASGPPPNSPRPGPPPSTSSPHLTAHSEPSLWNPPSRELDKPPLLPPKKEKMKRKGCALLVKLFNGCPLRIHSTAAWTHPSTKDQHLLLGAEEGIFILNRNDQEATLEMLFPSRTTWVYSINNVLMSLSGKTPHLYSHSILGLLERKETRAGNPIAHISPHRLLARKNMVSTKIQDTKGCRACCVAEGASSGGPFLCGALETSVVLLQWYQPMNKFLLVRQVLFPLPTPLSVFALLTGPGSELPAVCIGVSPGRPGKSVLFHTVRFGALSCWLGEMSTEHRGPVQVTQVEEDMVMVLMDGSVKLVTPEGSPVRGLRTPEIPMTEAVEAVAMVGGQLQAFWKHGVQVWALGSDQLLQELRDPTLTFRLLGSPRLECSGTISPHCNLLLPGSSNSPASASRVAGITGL
Protocol: Pharmacological Part HPK1 Kinase Assay
A recombinant fusion protein consisting of full-length human Hpk1 with an N-terminal Glutatione S-transferase (GST) tag was produced in a baculovirus/insect cell expression system. GST-Hpk1 protein was purified from cell lysates by glutathione sepharose affinity chromatography. Kinase inhibition was determined using the ADP Glo™ Kinase Assay kit (Promega, V9101). Test compounds were prepared by serial dilution in dimethyl sulfoxide (DMSO) and 0.1 μl of each dilution was spotted onto a 384-well white Proxiplate (Perkin Elmer, 6008289). 8 μl of kinase assay buffer (40 mM Tris pH 7.5, 2 mM dithiothreitol (DTT), 0.05% Bovine Serum Albumin, 5 mM MgCl2) containing Hpk1 protein was transferred to each well and incubated for 30-45 minutes at room temperature. The enzymatic reaction was started by adding 2 μl of kinase assay buffer containing 75 μM ATP. After 120 minutes, the reaction was stopped by adding 3 μl of ADP Glo™ reagent (Promega, V9101) and incubating 45 minutes at room temperature.

Hpk1, sequence (Q92918 whole entry): as the sequence (Q92918 whole entry, the tested form may be a part) above

| SMILES | IC50 (Hpk1) | IC50 (full-length human Hpk1) |
| --- | --- | --- |
| Nc1ncc(-c2ccc(C3CCOCC3)c(C3CCCN3)c2)cc1-c1cc[n+]([O-])cc1 (centres unmarked) [Co. 66] | > 10000 nM | 85.1 nM |
| COc1cc(-c2cc(-c3ccc(C4CCOCC4)c(CN(C)C)c3)cnc2N)ccn1 [Co. 71] | 2040 nM | 41.7 nM |
| Nc1ncc(-c2ccc(C3CCOCC3)c([C@@H]3CCCN3)c2)cc1C1=CCS(=O)(=O)CC1 [Co. 55] | > 10000 nM | 95.5 nM |
| Nc1ncc(-c2ccc(C3CCOCC3)c([C@@H]3CCCN3)c2)nc1C(F)(F)F [Co. 53] | 977 nM | 15.8 nM |
| Nc1ncc(-c2ccc(C3CCOCC3)c([C@H]3COCCCN3)c2)cc1-c1ccncc1 (single isomer, unassigned) [Co. 93b] | 1230 nM | 18.6 nM |
| Nc1ncc(-c2ccc(C3CCOCC3)c([C@@H]3COCCN3)c2)cc1F [Co. 88] | 4170 nM | 112 nM |
| Nc1ncc(-c2ccc(C3CCOCC3)c([C@@H]3CCCN3)c2)cc1-c1cncnc1 [Co. 3] | 5620 nM | 53.7 nM |
| Cn1cc(-c2nc(-c3ccc(C4CCOCC4)c([C@@H]4COCCN4)c3)cnc2N)cn1 [Co. 84] | 479 nM | 25.1 nM |
| Nc1ncc(-c2ccc(C3COC3)c([C@@H]3CCCN3)c2)cc1-c1ccnc(F)c1 [Co. 54] | > 10000 nM | 457 nM |
| Nc1ncc(-c2ccc(C3CCOCC3)c(CN3CCCC3)c2)cc1-c1ccncc1 [Co. 108] | 7590 nM | 117 nM |
| Nc1ncc(-c2ccc(N3CCOCC3)c(-c3nnc[nH]3)c2)cc1-c1ccncc1 [Co. 14] | > 10000 nM | 832 nM |
| CS(=O)(=O)n1cc(-c2cc(-c3ccc(C4CCOCC4)c([C@@H]4CCCN4)c3)cnc2N)cn1 [Co. 19] | 977 nM | 4.27 nM |
| [2H]c1cc(-c2cc(-c3ccc(C4CCOCC4)c([C@@H]4CCCN4)c3)cnc2N)cc([2H])n1 [Co. 65] | 1200 nM | 26.9 nM |
| Nc1ncc(-c2ccc(C3CCOCC3)c([C@@H]3CCCN3)c2)cc1-c1ccnc(C(F)(F)F)c1 [Co. 63] | 5370 nM | 58.9 nM |
| Nc1ncc(-c2cnc(N3CCOCC3)c(C3CCCN3)c2)cc1-c1ccncc1 (centres unmarked) [Co. 12] | 7410 nM | 112 nM |
| CN(C)Cc1cc(-c2cnc(N)c(-c3ccccc3)c2)ccc1C1CCOCC1 [Co. 76] | 1950 nM | 34.7 nM |
| CC(=O)N1CC=C(c2ccc(-c3cnc(N)c(-c4ccnc(F)c4)c3)cc2[C@@H]2CCCN2)CC1 [Co. 47] | 1350 nM | 24.5 nM |
| Nc1ncc(-c2ccc(C3CCOCC3)c([C@@H]3CCCN3)c2)cc1Br [Co. 37] | 646 nM | 7.24 nM |
| CO[C@H]1CC[C@@H](c2ccc(-c3cnc(N)c(-c4ccnc(F)c4)c3)cc2[C@@H]2CCCN2)CC1 [Co. 51] | 550 nM | 18.2 nM |
| Nc1ncc(-c2ccc(C3CCOCC3)c([C@@H]3CCCN3)c2)cc1-c1cnn(CCO)c1 [Co. 21] | 6920 nM | 18.6 nM |
| Nc1ncc(-c2ccc(C3CCOCC3)c([C@@H]3C[S@@+]([O-])CCN3)c2)cc1-c1ccnc(F)c1 (single isomer, unassigned) [Co. 15c] | > 10000 nM | 631 nM |
| CC(C)(C#N)c1cc(-c2cc(-c3ccc(C4CCOCC4)c([C@@H]4CCCN4)c3)cnc2N)ccn1 [Co. 29] | 6030 nM | 38 nM |
| Nc1ncc(-c2ccc(C3CCOCC3)c(-c3cnc[nH]3)c2)cc1-c1ccncc1 [Co. 13] | 8910 nM | 186 nM |
| Nc1ncc(-c2ccc(C3CCOCC3)c([C@@H]3CCCN3)c2)cc1-c1cc[nH]c(=O)c1 [Co. 57] | > 10000 nM | 26.3 nM |
| Nc1ncc(-c2ccc(C3CCOCC3)c([C@@H]3CCCN3)c2)cc1-c1cc(F)ncc1Cl [Co. 32] | 1860 nM | 28.2 nM |
| Nc1ncc(-c2ccc(C3CCC(F)(F)CC3)c([C@@H]3CCCN3)c2)cc1-c1ccnc(F)c1 [Co. 50] | 2450 nM | 20 nM |

| SMILES | IC50 (Hpk1) | IC50 (full-length human Hpk1) |
| --- | --- | --- |
| Nc1ncc(-c2ccc(C3CCOCC3)c([C@@H]3CC4(CC4)CN3)c2)cc1-c1ccnc(F)c1 (single isomer, unassigned) [Co. 5a] | 776 nM | 10.2 nM |
| N#Cc1cc(-c2ccc(C3CCOCC3)c([C@@H]3CCCN3)c2)cnc1N [Co. 44] | 339 nM | 9.33 nM |
| Nc1ncc(-c2ccc(C3CCOCC3)c([C@@H]3CCCN3)c2)nc1-c1ccnc(F)c1 [Co. 43] | > 10000 nM | 21.4 nM |
| Nc1ncc(-c2ccc(C3CCOCC3)c([C@@H]3CSCCN3)c2)cc1-c1ccnc(F)c1 (single isomer, unassigned) [Co. 103a] | 1950 nM | 7.76 nM |
| Nc1ncc(-c2ccc(C3CCOCC3)c([C@@H]3CCCN3)c2)cc1-c1ccncn1 [Co. 26] | 245 nM | 2.04 nM |
| CC(C)n1cc(-c2cc(-c3ccc(C4CCOCC4)c([C@@H]4CCCN4)c3)cnc2N)cn1 [Co. 22] | 339 nM | 2.75 nM |
| CN(C)Cc1cc(-c2cnc(N)c(-c3ccnc(N4CCNCC4)c3)c2)ccc1C1CCOCC1 [Co. 67] | 1660 nM | 46.8 nM |
| Nc1ncc(-c2ccc(C3CCOCC3)c([C@@H]3COCCN3)c2)cc1Cl [Co. 85] | 1150 nM | 38 nM |
| CN(C)Cc1cc(-c2cnc(N)c(-c3ccncc3)c2)ccc1C1CCOCC1 [Co. 73] | 1550 nM | 42.7 nM |
| Cn1cc(-c2cc(-c3ccc(C4CCOCC4)c([C@@H]4COCCN4)c3)cnc2N)cn1 [Co. 81] | 813 nM | 15.5 nM |
| Nc1ncc(-c2ccc(C3CCOCC3)c(CNC3COC3)c2)cc1-c1ccnc(F)c1 [Co. 105] | > 10000 nM | 380 nM |
| Cc1cc(-c2cc(-c3ccc(C4CCOCC4)c([C@@H]4CCCN4)c3)cnc2N)on1 [Co. 39] | 275 nM | 2.34 nM |
| Nc1ncc(-c2ccc(C3CCOCC3)c([C@@H]3CCCN3)c2)cc1-c1ccc(=O)[nH]c1 [Compound 56] | > 10000 nM | 35.5 nM |
| CN(C)Cc1cc(-c2cnc(N)c(-c3ccncc3F)c2)ccc1C1CCOCC1 [Co. 72] | 2290 nM | 40.7 nM |
| Nc1ncc(-c2ccc(C3CCOCC3)c([C@H]3C[S@@+]([O-])CCN3)c2)cc1-c1ccnc(F)c1 (single isomer, unassigned) [Compound 15a] | > 10000 nM | 9330 nM |
| Nc1ncc(-c2ccc(C3CCOCC3)c([C@@H]3CCCN3)c2)cc1-c1ccncc1Cl [Co. 30] | 490 nM | 28.2 nM |
| COc1cc(-c2ccc(C3CCOCC3)c([C@@H]3COCCN3)c2)cnc1N [Co. 87] | 1100 nM | 47.9 nM |
| Nc1ncc(-c2ccc(C3CCOCC3)c([C@@H]3COCCN3)c2)cc1Br [Co. 78] | 912 nM | 8.13 nM |
| CC1(C)COc2ncc(-c3cc(-c4ccc(C5CCOCC5)c([C@@H]5CCCN5)c4)cnc3N)cc21 [Co. 40] | 1100 nM | 8.91 nM |
| C[C@@H]1CCN[C@@H]1c1cc(-c2cnc(N)c(-c3ccncc3)c2)ccc1C1CCOCC1 (racemic) [Co. 10] | 282 nM | 6.61 nM |
| N#Cc1cc(-c2cc(-c3ccc(C4CCOCC4)c([C@@H]4CCCN4)c3)cnc2N)ccn1 [Co. 61] | 3980 nM | 34.7 nM |
| Nc1ncc(-c2ccc(C3CCOCC3)c([C@@H]3CCCN3)c2)cc1-c1ccncc1 [Co. 25] | 427 nM | 9.77 nM |
| Nc1ncc(-c2ccc(C3CCCCC3)c([C@@H]3CCCN3)c2)cc1-c1ccnc(F)c1 [Co. 38] | 1290 nM | 7.59 nM |
| C[C@H]1CN[C@H](c2cc(-c3cnc(N)c(-c4cnn(C)c4)n3)ccc2C2CCOCC2)CO1 [Co. 90] | 1230 nM | 35.5 nM |
| Nc1ncc(-c2ccc(C3CCOCC3)c([C@@H]3CC4(CC4)CN3)c2)cc1-c1ccncc1 (single isomer, unassigned) [Co. 8a] | 347 nM | 6.31 nM |
| N#Cc1cc(-c2ccc(C3CCOCC3)c([C@@H]3COCCN3)c2)cnc1N [Co. 89] | 851 nM | 21.4 nM |
